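Test compounds were applied to cells in 96-well plates for 48 hours at 5 doses. TGI: concentration producing complete growth inhibition.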
Legend:
Assay in all cases: DTP human tumour cell line panel, 48 h
[1] = tested on: MCF7 breast
[2] = tested on: A549 NSCLC
[3] = tested on: SN12C renal
[4] = tested on: HCT-116 colon
[5] = tested on: OVCAR-8 ovarian
[6] = tested on: OVCAR-5 ovarian
[7] = tested on: COLO 205 colon
[8] = tested on: NCI-H23 lung
[9] = tested on: NCI/ADR-RES ovarian
[10] = tested on: MOLT-4 leukemia

| Compound | TGI [1] | TGI [2] | TGI [3] | TGI [4] | TGI [5] | TGI [6] | TGI [7] | TGI [8] | TGI [9] | TGI [10] |
| --- | --- | --- | --- | --- | --- | --- | --- | --- | --- | --- |
| CC(C)(C)c1cc(C(=O)/C=C/C=C/c2ccccc2)cc(C(C)(C)C)c1O | > 86.6 µM | 47.3 µM | 77.3 µM | 44.9 µM | 58.5 µM | > 87 µM | 34.9 µM | > 100 µM | 30.5 µM | > 63.1 µM |
| Cc1ccc(-c2cc(-c3ccc(Cl)cc3)nc(/N=C3\C(=O)N(CN4CCOCC4)c4ccc(Cl)cc43)n2)cc1 | 79.2 µM | > 100 µM | 59.1 µM | 40.9 µM | 55.4 µM | > 100 µM | 49.7 µM | 57.6 µM | 61.3 µM | 57 µM |
| COc1cccc2c1C(=O)c1c(O)c3c(c(O)c1C2=O)C[C@@](O)(C(=O)CO)C[C@@H]3OC1CC(N)C(OC)C(C)O1 (some centres not stated) | 0.41 µM | 18.7 µM | 0.644 µM | > 100 µM | 1.21 µM | 1.34 µM | 1.94 µM | 0.457 µM | – | 0.0517 µM |
| CC#C[P+](c1ccccc1)(c1ccccc1)c1ccccc1 | – | > 100 µM | 4.13 µM | 13.3 µM | 12 µM | 22 µM | 2.77 µM | 7.03 µM | – | 5.31 µM |
| COc1ccc(-c2c(C#N)c(O)n(NS(=O)(=O)c3ccc(C)cc3)c(=O)c2C#N)cc1 | > 100 µM | > 100 µM | > 100 µM | > 100 µM | > 100 µM | > 100 µM | > 100 µM | – | > 100 µM | 66.1 µM |
| CCOC(=O)c1ccc(NC(=O)O/N=C(/Cl)CCl)cc1 | 76 µM | > 100 µM | > 100 µM | > 100 µM | > 100 µM | > 100 µM | > 100 µM | > 100 µM | > 100 µM | > 100 µM |
| CC(=O)Nc1ccc2cc(C)c(=O)[nH]c2n1 | – | > 100 µM | > 100 µM | > 100 µM | > 100 µM | > 100 µM | > 100 µM | > 100 µM | > 100 µM | > 100 µM |
| N#CC1(C#N)C2CCCCC23OC(=N)C1(C#N)C(c1ccccc1)O3 (configuration not stated) | 49.9 µM | > 100 µM | 26.7 µM | 41.4 µM | 48.9 µM | 50.6 µM | 34.1 µM | > 100 µM | > 100 µM | > 100 µM |
| O=C(/C=C/C=C/c1ccccc1)c1ccc2c(c1)CCCC2 | > 100 µM | > 100 µM | > 100 µM | > 100 µM | > 100 µM | > 100 µM | > 100 µM | > 100 µM | 65.8 µM | 87.6 µM |
| O=C(NC(CO)Cc1ccc(Oc2cc(CC(CO)NC(=O)OCc3ccccc3)ccc2OC(=O)OCc2ccccc2)cc1)OCc1ccccc1 (configuration not stated) | 26.8 µM | > 100 µM | > 100 µM | 40.7 µM | 40.6 µM | > 100 µM | 36 µM | 36.1 µM | > 100 µM | 22.4 µM |
| C[C@H]1C2Cc3cc(N)ccc3[C@@]1(C)CCN2CCc1ccccc1 | 94.1 µM | > 100 µM | > 100 µM | > 100 µM | > 100 µM | > 100 µM | 32.9 µM | > 100 µM | > 100 µM | > 100 µM |
| O=C1/C(=C/c2ccccc2)NC(=S)N1CN1CCOCC1 | > 100 µM | > 100 µM | > 100 µM | > 100 µM | > 100 µM | > 100 µM | > 100 µM | > 100 µM | > 100 µM | > 100 µM |
| CC1C[C@]2(C)C(=O)Nc3ccccc3[C@@H]2Nc2ccccc21 (some centres not stated) | 84.9 µM | > 100 µM | 37.6 µM | 33.6 µM | 28.9 µM | > 100 µM | 34 µM | 54.8 µM | 46.5 µM | 59.2 µM |
| CC1(C)OC2C(O)CN3CCS[C@H]3C2O1 (some centres not stated) | – | > 100 µM | – | > 100 µM | > 100 µM | > 100 µM | > 100 µM | > 100 µM | > 100 µM | > 100 µM |
| C[C@@H]1C[C@](O)([C@@H](C)Cl)C(=O)O[C@@H]2CCN3CC=C(COC(=O)[C@]1(C)O)[C@H]23 | > 100 µM | > 100 µM | – | > 100 µM | > 100 µM | > 100 µM | > 100 µM | > 10 µM | > 100 µM | – |
| CC(C)=CCc1c(O)ccc2ccc(=O)oc12 | > 100 µM | > 100 µM | > 100 µM | > 100 µM | > 100 µM | > 31.6 µM | > 100 µM | > 100 µM | > 31.6 µM | 84.2 µM |
| CSc1nncc2[nH]c(C)nc12 | > 100 µM | > 100 µM | > 100 µM | > 100 µM | > 100 µM | > 100 µM | > 100 µM | > 100 µM | > 100 µM | > 100 µM |
| NCCCNCCCCNCCCN | 13.1 µM | > 100 µM | 15.4 µM | 8.78 µM | > 100 µM | > 100 µM | 11.8 µM | > 100 µM | > 91.6 µM | 17.5 µM |

| Compound | TGI [1] | TGI [2] | TGI [3] | TGI [4] | TGI [5] | TGI [6] | TGI [7] | TGI [8] | TGI [9] | TGI [10] |
| --- | --- | --- | --- | --- | --- | --- | --- | --- | --- | --- |
| Cn1c(N)c2c3c(sc2nc1=O)CCCC3 | > 75 µM | – | > 75 µM | > 75 µM | > 75 µM | > 75 µM | > 75 µM | > 75 µM | > 75 µM | > 75 µM |
| Cn1c(=O)c2c(no[n+]2[O-])c2ccccc21 | > 100 µM | > 100 µM | 59.8 µM | 30.2 µM | 28.3 µM | – | 35.8 µM | 34.8 µM | 47.3 µM | 44.4 µM |
| Cc1cc(OCc2nnc3n2N=C(c2cc(F)c(Cl)cc2Cl)/C(=C/c2ccc(Cl)cc2)S3)ccc1Cl | 87.9 µM | – | – | 66.9 µM | 39.7 µM | 95.5 µM | – | 79.9 µM | > 100 µM | 19.8 µM |
| CC(C)(C)[Si](C)(C)OC1/C(=C/C#N)C(n2ccc(=O)[nH]c2=O)OC1CO (configuration not stated) | > 100 µM | > 100 µM | – | > 100 µM | > 100 µM | > 100 µM | > 100 µM | > 100 µM | > 100 µM | > 100 µM |
| CCOP(=O)(O)C(C)(C)NC | – | > 100 µM | > 100 µM | > 100 µM | > 100 µM | > 100 µM | > 100 µM | > 100 µM | > 100 µM | > 100 µM |
| CN1C(=O)C(CC=O)(C(C)(C)C)c2ccccc21 (configuration not stated) | > 100 µM | > 100 µM | > 100 µM | > 100 µM | – | > 100 µM | > 100 µM | > 100 µM | > 100 µM | > 100 µM |
| COc1ccc(C(OC(C)=O)C2C(=C(C#N)C#N)c3ccccc3C2=C(C#N)C#N)cc1 (configuration not stated) | > 100 µM | – | – | > 100 µM | > 100 µM | 38.3 µM | – | 85.7 µM | > 100 µM | 99.8 µM |
| CN1CCN(CN2C(=O)C3C4C=CC(C3C2=O)C2C(=O)N(CN3CCN(C)CC3)C(=O)C42)CC1 (configuration not stated) | 72.8 µM | – | > 100 µM | > 62.1 µM | > 100 µM | > 100 µM | > 100 µM | > 78.4 µM | > 100 µM | 97.1 µM |
| Cc1ccc(-c2c3c(n(C4OC(CO)C(O)C(O)C4O)c(=S)c2C#N)CC(C)(C)CC3=O)cc1 (configuration not stated) | > 100 µM | > 100 µM | > 100 µM | > 100 µM | > 100 µM | > 100 µM | – | > 100 µM | > 100 µM | > 100 µM |
| CN(CCN(C)C(=S)NN)C(=S)NN | – | > 100 µM | > 100 µM | > 100 µM | – | > 100 µM | > 100 µM | > 100 µM | – | > 100 µM |
| COC(=O)c1c(O)ccc2c1c1c(n2Cc2ccc(Cl)cc2Cl)C(=O)c2ccccc2C1 | 89.9 µM | > 100 µM | 55.2 µM | > 100 µM | > 100 µM | – | > 100 µM | > 100 µM | > 100 µM | > 100 µM |
| CC(C)(C)NC(=O)N1N=C(c2ccccc2)C1c1ccccc1 (configuration not stated) | > 100 µM | > 100 µM | > 100 µM | 52.8 µM | > 100 µM | > 100 µM | > 100 µM | > 100 µM | > 100 µM | – |
| CCOC(=O)NC1CN2CCC1CC2 (configuration not stated) | – | > 100 µM | > 100 µM | > 100 µM | > 100 µM | > 100 µM | > 100 µM | > 100 µM | > 100 µM | > 100 µM |
| CCc1nc2ccc(N=NN(C)C)cc2[nH]1 | – | > 100 µM | > 100 µM | > 100 µM | > 100 µM | > 100 µM | > 100 µM | > 100 µM | > 100 µM | > 100 µM |
| Cc1c(CNc2ccc(C(=O)NC(CC(=O)O)C(=O)O)cc2)ccc2nc(N)nc(N)c12 (configuration not stated) | > 1000 µM | > 1000 µM | > 1000 µM | > 1000 µM | > 1000 µM | > 1000 µM | – | > 1000 µM | > 1000 µM | > 1000 µM |
| COc1cc2c(cc1O)C1C(O)C(O)C=C3CCN(C2)C31 (configuration not stated) | – | 10.5 µM | 14.6 µM | 2.25 µM | 9.14 µM | 24.6 µM | 3.14 µM | 6.39 µM | – | 12.2 µM |
| COc1ccc(CCN=C2OCc3ccccc32)cc1OC | 90.4 µM | > 100 µM | > 100 µM | 71.3 µM | > 100 µM | – | > 100 µM | > 100 µM | > 100 µM | > 100 µM |
